Results reported in PubChem BioAssay AID256 (DTP/NCI, 2004).
Several values for one entry are separate records, joined by “and”; a condition that tells them apart may be missing. Equal values may be shown once. Toxic doses and inconclusive results are not listed. The calls were made as follows: active = survival T/C of 150% or more; inactive = T/C below 125% in these data.

System: CD2F1 mice, L1210 leukemia ip, survival T/C
Assay: NCI In Vivo Anticancer Drug Screen. Data for tumor model L1210 Leukemia (intraperitoneal) in CD2F1 (CDF1) mice
Details: higher = longer survival
In short: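 Each value reflects a quotient of treated over vehicle control outcomes in mice with a transplanted tumor.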

[1] = endpoint: mean survival time, dose: 100.0 mg/kg/injection, schedule: Q04DX003 (ip), vehicle: saline with Tween-80
[2] = endpoint: mean survival time, dose: 200.0 mg/kg/injection, schedule: Q04DX003 (ip), vehicle: saline with Tween-80
[3] = endpoint: mean survival time, dose: 400.0 mg/kg/injection, schedule: Q04DX003 (ip), vehicle: saline with Tween-80
[4] = endpoint: mean survival time, dose: 100.0 mg/kg/injection, schedule: Q04DX002 (ip), vehicle: saline with Tween-80
[5] = endpoint: mean survival time, dose: 200.0 mg/kg/injection, schedule: Q04DX002 (ip), vehicle: saline with Tween-80
[6] = endpoint: mean survival time, dose: 100.0 mg/kg/injection, schedule: Q01DX001 (ip), vehicle: saline with Tween-80
[7] = endpoint: mean survival time, dose: 200.0 mg/kg/injection, schedule: Q01DX001 (ip), vehicle: saline with Tween-80
[8] = endpoint: mean survival time, dose: 400.0 mg/kg/injection, schedule: Q01DX001 (ip), vehicle: saline with Tween-80
[9] = endpoint: mean survival time, dose: 100.0 mg/kg/injection, schedule: Q01DX009 (ip), vehicle: saline with Tween-80
[10] = endpoint: mean survival time, dose: 200.0 mg/kg/injection, schedule: Q01DX009 (ip), vehicle: saline with Tween-80

Measured: T/C

Cc1cc(Cl)ccc1NS(=O)(=O)c1cccc([N+](=O)[O-])c1
inactive: [1] 97 % of control | [2] 93 % of control | [3] 90 % of control

CC(=O)OC1CCC2(C)C3CCC4(C)C(O)CCC4C3CC(O)C2(O)C1 (centres undefined)
inactive: [1] 90 % of control | [2] 87 % of control | [3] 91 % of control

CC1(C)COC(CC2(O)CCCCCC2)=N1
inactive: [4] 101 % of control | [1] 95 % of control | [5] 96 % of control | [2] 88 % of control | endpoint: mean survival time, dose: 400.0 mg/kg/injection, schedule: Q04DX002 (ip), vehicle: saline with Tween-80 101 % of control | [3] 93 % of control

CCN(C(=O)Nc1cccc2ccccc12)c1ccccc1
inactive: [1] 104 % of control | [2] 101 % of control | [3] 109 % of control

CC(C)(CCC#N)C(=O)c1ccccc1
inactive: [4] 94 % of control | [5] 102 % of control

Cn1nnc(-c2nn[nH]n2)n1
inactive: [6] 105 % of control | [1] 106 % of control | [7] 104 % of control | [2] 98 % of control | [8] 94 % of control | [3] 97 % of control

O=C(O)C1=NN(c2ccc(S(=O)(=O)O)cc2)C(=O)C1
inactive: [9] 96 % of control | [10] 92 % of control | endpoint: mean survival time, dose: 400.0 mg/kg/injection, schedule: Q01DX009 (ip), vehicle: saline with Tween-80 92 % of control

CC(O)CNC1CCCCC1 (centres undefined)
inactive: endpoint: mean survival time, dose: 25.0 mg/kg/injection, schedule: Q01DX009 (ip), vehicle: saline with Tween-80 97 % of control | endpoint: mean survival time, dose: 50.0 mg/kg/injection, schedule: Q01DX009 (ip), vehicle: saline with Tween-80 97 % of control | [9] 97 % of control

NC(=O)c1nc(C2OC(CO)C(O)C2O)cs1 (centres undefined)
inactive: endpoint: median survival time, dose: 50.0 mg/kg/injection, schedule: Q01DX005 (ip), vehicle: water 100 % of control | endpoint: median survival time, dose: 100.0 mg/kg/injection, schedule: Q01DX005 (ip), vehicle: water 102 % of control | endpoint: median survival time, dose: 200.0 mg/kg/injection, schedule: Q01DX005 (ip), vehicle: water 98 % of control | endpoint: median survival time, dose: 400.0 mg/kg/injection, schedule: Q01DX005 (ip), vehicle: water 101 % of control

C=CCOc1c(C)cc(C(C)(C)c2cc(C)c(OCC=C)c(C)c2)cc1C
inactive: endpoint: mean survival time, dose: 25.0 mg/kg/injection, schedule: Q01DX001 (ip), vehicle: other 104 % of control | endpoint: mean survival time, dose: 50.0 mg/kg/injection, schedule: Q01DX001 (ip), vehicle: other 103 % of control | endpoint: mean survival time, dose: 100.0 mg/kg/injection, schedule: Q01DX001 (ip), vehicle: other 94 % of control and 97 % of control | endpoint: mean survival time, dose: 400.0 mg/kg/injection, schedule: Q01DX001 (ip), vehicle: other 96 % of control

NC(=S)NCc1ccccc1
inactive: [9] 89 % of control | [1] 105 % of control | [10] 91 % of control | [2] 101 % of control | [3] 112 % of control

CCOC(CSCC#N)OCC
inactive: endpoint: mean survival time, dose: 12.5 mg/kg/injection, schedule: Q01DX009 (ip), vehicle: saline sonified 102 % of control | endpoint: mean survival time, dose: 12.5 mg/kg/injection, schedule: Q04DX003 (ip), vehicle: saline sonified 98 % of control | endpoint: mean survival time, dose: 25.0 mg/kg/injection, schedule: Q01DX009 (ip), vehicle: saline sonified 104 % of control | endpoint: mean survival time, dose: 25.0 mg/kg/injection, schedule: Q04DX003 (ip), vehicle: saline sonified 98 % of control | endpoint: mean survival time, dose: 50.0 mg/kg/injection, schedule: Q01DX009 (ip), vehicle: saline sonified 102 % of control | endpoint: mean survival time, dose: 50.0 mg/kg/injection, schedule: Q04DX003 (ip), vehicle: saline sonified 98 % of control

O=C(C=P(c1ccccc1)(c1ccccc1)c1ccccc1)c1ccccc1
inactive: [1] 97 % of control | [2] 101 % of control | [3] 89 % of control

CSc1ccc(C(c2ccc(SC)cc2)C(Cl)(Cl)Cl)cc1
inactive: endpoint: mean survival time, dose: 50.0 mg/kg/injection, schedule: Q04DX003 (ip), vehicle: saline with Tween-80 91 % of control | [1] 89 % of control

CC(c1ccccc1C(=O)O)c1cc(F)cc2ccccc12 (centres undefined)
inactive: endpoint: median survival time, dose: 25.0 mg/kg/injection, schedule: Q04DX003 (ip), vehicle: saline with Tween-80 111 % of control | endpoint: median survival time, dose: 50.0 mg/kg/injection, schedule: Q04DX003 (ip), vehicle: saline with Tween-80 111 % of control | endpoint: median survival time, dose: 100.0 mg/kg/injection, schedule: Q04DX003 (ip), vehicle: saline with Tween-80 88 % of control | endpoint: median survival time, dose: 200.0 mg/kg/injection, schedule: Q04DX003 (ip), vehicle: saline with Tween-80 88 % of control

O=[N+]([O-])c1ccc2nc3ccscc-3c2c1
inactive: endpoint: mean survival time, dose: 100.0 mg/kg/injection, schedule: Q01DX001 (ip), vehicle: acetone 100 % of control | endpoint: mean survival time, dose: 200.0 mg/kg/injection, schedule: Q01DX001 (ip), vehicle: acetone 100 % of control | endpoint: mean survival time, dose: 400.0 mg/kg/injection, schedule: Q01DX001 (ip), vehicle: acetone 92 % of control

Cc1ccc(S(=O)(=O)OC2C(O)OC3COC(c4ccccc4)OC3C2OS(=O)(=O)c2ccc(C)cc2)cc1 (centres undefined)
inactive: [6] 94 % of control | [7] 105 % of control | [8] 94 % of control

Oc1c(Cl)cc(Cl)cc1CN(Cc1cc(Cl)cc(Cl)c1O)c1ccccc1
inactive: endpoint: mean survival time, dose: 12.5 mg/kg/injection, schedule: Q01DX009 (ip), vehicle: Klucel (hydroxypropylcellulose) (HPC) 103 % of control | endpoint: mean survival time, dose: 25.0 mg/kg/injection, schedule: Q01DX009 (ip), vehicle: Klucel (hydroxypropylcellulose) (HPC) 102 % of control | endpoint: mean survival time, dose: 50.0 mg/kg/injection, schedule: Q01DX009 (ip), vehicle: Klucel (hydroxypropylcellulose) (HPC) 101 % of control | endpoint: mean survival time, dose: 100.0 mg/kg/injection, schedule: Q01DX009 (ip), vehicle: Klucel (hydroxypropylcellulose) (HPC) 100 % of control | endpoint: mean survival time, dose: 200.0 mg/kg/injection, schedule: Q01DX009 (ip), vehicle: Klucel (hydroxypropylcellulose) (HPC) 100 % of control | endpoint: mean survival time, dose: 400.0 mg/kg/injection, schedule: Q01DX009 (ip), vehicle: Klucel (hydroxypropylcellulose) (HPC) 94 % of control

Nc1cc(N)nc(N)n1
inactive: [6] 103 % of control | [7] 105 % of control

CC(=O)c1ccc[n+](C)c1
inactive: endpoint: mean survival time, dose: 100.0 mg/kg/injection, schedule: Q04DX003 (ip), vehicle: saline 104 % of control | endpoint: mean survival time, dose: 200.0 mg/kg/injection, schedule: Q04DX003 (ip), vehicle: saline 104 % of control

C#CC(CC(C)CC(C)(C)C)N(C)C (centres undefined)
inactive: [9] 98 % of control
